Results taken from patent US20050064507A1, “Determining kinase specificity” (priority 2003, published 2005).

Tested on: pPKC Ab
Test: pPKC Ab binding to peptides phosphorylated in vitro by PKC-theta
Conditions: for pPKC Ab Signal on peptide after exposure to PKC-theta phosphorylation: 30 minutes at 30° C. then overnight at 4° C.; for pPKC Ab Signal amount dependent on PKC phosphorylation: difference after minus without exposure
Experimental: Synthetic peptides chosen from those shown in Table 4 were subjected to phosphorylation by PKC-theta, Assay conditions were similar to those described herein, except that the phosphorylation reaction was for 30 minutes at 30° C. and then overnight at 4° C. The reaction mixture was applied to HB avidin-coated plates, the plates washed, and then pPKC Ab binding assayed.

Substance | pPKC Ab Signal on peptide without exposure to PKC-theta | pPKC Ab Signal on peptide after exposure to PKC-theta phosphorylation | pPKC Ab Signal amount dependent on PKC phosphorylation
76 (HVRRRRGTFKRSKLRARD) [compound 76] | 0.07 | 1.02 | 0.95
121 (LRRRSLRRSNSISKSPGP) [compound 121] | 0.02 | 1.13 | 1.11
